Reference: BindingDB's records for doi:10.3109/14756360903508430 (University of Karachi, 2010)

Assays:
Cathepsin D = Cathepsin D (Homo sapiens, UniProt P07339); assay: Fluorescence Resonance Energy Transfer (FRET)-Based Assay; details: pH 5
Protocol: (§1) The assay was performed with plasmepsin-II/cathepsin D (1.2 nM) and substrate (malaria FRET-1; 1.0 μM) in 0.1 M sodium acetate buffer pH 5, containing 10% glycerol and 0.01% Tween 20. The hydrazide and hydrazine compounds dissolved in DMSO were added in the reaction mixture before the addition of substrate. The assays were performed with 5% final concentration of DMSO. The enzyme inhibition experiments were performed (in triplicates) in 96-well plate format and readings were obtained on a Perkin Elmer LS55 fluorescence spectrometer, Waltham, Massachusetts, with an excitation and emission wavelengths of 336 and 490 nm respectively.

Plasmepsin II = Plasmepsin II (Plasmodium falciparum (isolate HB3), UniProt P46925); assay: as above; details: pH 5
Protocol: as §1

Chain of Plasmepsin II (P46925 whole entry): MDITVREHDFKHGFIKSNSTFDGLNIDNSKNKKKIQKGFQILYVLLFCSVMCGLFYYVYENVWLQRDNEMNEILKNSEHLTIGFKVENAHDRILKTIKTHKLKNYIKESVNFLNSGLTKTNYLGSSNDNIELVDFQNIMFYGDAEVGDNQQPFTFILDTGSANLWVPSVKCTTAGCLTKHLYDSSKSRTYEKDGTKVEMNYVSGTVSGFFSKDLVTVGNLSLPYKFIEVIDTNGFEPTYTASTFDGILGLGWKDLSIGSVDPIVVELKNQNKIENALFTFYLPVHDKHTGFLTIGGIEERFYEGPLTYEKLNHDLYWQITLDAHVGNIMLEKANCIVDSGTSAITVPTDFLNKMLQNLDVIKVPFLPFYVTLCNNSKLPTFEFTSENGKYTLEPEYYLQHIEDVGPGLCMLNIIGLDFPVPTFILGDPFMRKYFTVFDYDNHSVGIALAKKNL
Chain of Cathepsin D (P07339 65-162 limits assumed): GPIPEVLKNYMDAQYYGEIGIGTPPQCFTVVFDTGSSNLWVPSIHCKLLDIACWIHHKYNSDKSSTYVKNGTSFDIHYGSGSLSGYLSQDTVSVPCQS
Chain of Cathepsin D (P07339 169-412 limits assumed): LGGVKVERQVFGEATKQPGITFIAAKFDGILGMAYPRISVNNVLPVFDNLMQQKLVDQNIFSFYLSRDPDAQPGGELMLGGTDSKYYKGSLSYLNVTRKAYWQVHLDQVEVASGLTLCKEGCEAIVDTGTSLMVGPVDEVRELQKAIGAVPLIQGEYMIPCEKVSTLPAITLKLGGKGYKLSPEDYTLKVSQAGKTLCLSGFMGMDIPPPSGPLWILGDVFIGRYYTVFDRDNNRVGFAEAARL

Compound	IC50 (Cathepsin D)	IC50 (Plasmepsin II)
COc1ccccc1C(=O)NN	1500 nM	1650 nM
c1ccc(NNc2ccccc2)cc1 [1,2-Diphenylhydrazine]	2400 nM	1050 nM
c1cc(NNc2ccncc2)ccn1 [1,2-Dipyridinylhydrazine]	2500 nM	1450 nM
NNC(=O)c1ccccc1[N+](=O)[O-] [2-Nitrobenzohydrazide]	1300 nM	1000 nM
CCCC(=O)NN [Butanohydrazide]	1400 nM	1250 nM
